Data as given in PubChem BioAssay (NCI).
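Grown in 96-well plates, cells were treated for 48 hours with each compound at five concentrations. Insufficient inhibition: endpoint recorded as highest concentration tested. Abbreviation: GI50, concentration required for 50% inhibition of growth. At the TGI there is no net growth.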

Experiments:
Test in all cases: NCI-60 cell line screen, 48 h
[1] = system: LOX IMVI melanoma
[2] = system: K-562 leukemia
[3] = system: RPMI-8226 leukemia
[4] = system: UACC-257 melanoma
[5] = system: PC-3 prostate
[6] = system: ACHN renal
[7] = system: COLO 205 colon
[8] = system: SF-295 CNS
[9] = system: SW-620 colon
[10] = system: U251 CNS
[11] = system: T-47D breast
[12] = system: MDA-MB-231 breast
[13] = system: MCF7 breast
[14] = system: SF-268 CNS
[15] = system: OVCAR-8 ovarian
[16] = system: NCI-H23 lung
[17] = system: OVCAR-5 ovarian
[18] = system: SK-OV-3 ovarian
[19] = system: 786-0 renal
[20] = system: SF-539 CNS
[21] = system: HOP-62 NSCLC
[22] = system: M14 melanoma
[23] = system: MDA-MB-435
[24] = system: UACC-62 melanoma
[25] = system: SNB-19 CNS
[26] = system: NCI-H522 lung
[27] = system: DU-145 prostate
[28] = system: HS 578T breast
[29] = system: CCRF-CEM leukemia
[30] = system: RXF 393 renal
[31] = system: SR leukemia
[32] = system: MOLT-4 leukemia
[33] = system: KM12 colon
[34] = system: IGROV1 ovarian
[35] = system: SK-MEL-2 melanoma
[36] = system: HCT-116 colon
[37] = system: NCI/ADR-RES ovarian
[38] = system: HCT-15 colon
[39] = system: A549 NSCLC
[40] = system: UO-31 renal
[41] = system: BT-549 breast
[42] = system: HOP-92 NSCLC
[43] = system: SK-MEL-28 melanoma
[44] = system: A498 renal
[45] = system: TK-10 renal
[46] = system: HT29 colon
[47] = system: NCI-H460 lung
[48] = system: CAKI-1 renal
[49] = system: EKVX NSCLC
[50] = system: OVCAR-3 ovarian
[51] = system: HL-60(TB) leukemia
[52] = system: SK-MEL-5 melanoma
[53] = system: NCI-H226 lung
[54] = system: MALME-3M melanoma
[55] = system: HCC-2998 colon
[56] = system: SNB-75 CNS
[57] = system: OVCAR-4 ovarian
[58] = system: SN12C renal

## COC(=O)CCC1=C(C)C(C)=N/C1=C\c1[nH]c(-c2ccc[nH]2)cc1OC
[1]
  GI50: 221 nM
  TGI: 609 nM
[2]
  GI50: 462 nM
  TGI: 24200 nM
[3]
  GI50: 356 nM
  TGI: 1920 nM
[4]
  GI50: 1440 nM
  TGI: 9860 nM
[5]
  GI50: 633 nM
  TGI: 14400 nM
[6]
  GI50: 410 nM
  TGI: 2760 nM
[7]
  GI50: 394 nM
  TGI: 1480 nM
[8]
  GI50: 724 nM
  TGI: 4280 nM
[9]
  GI50: 385 nM
  TGI: 11900 nM
[10]
  GI50: 419 nM
  TGI: 2870 nM
[11]
  GI50: 329 nM
  TGI: 3420 nM
[12]
  GI50: 228 nM
  TGI: 2090 nM
[13]
  GI50: 297 nM
  TGI: 2790 nM
[14]
  GI50: 935 nM
  TGI: 16200 nM
[15]
  GI50: 334 nM
  TGI: 12400 nM
[16]
  GI50: 805 nM
  TGI: 11400 nM
[17]
  GI50: 490 nM
  TGI: 12200 nM
[18]
  GI50: 2820 nM
  TGI: 15900 nM
[19]
  GI50: 456 nM
  TGI: 2950 nM
[20]
  GI50: 639 nM
  TGI: 6380 nM
[21]
  GI50: 471 nM
  TGI: 1720 nM
[22]
  GI50: 548 nM
  TGI: 12200 nM
[23]
  GI50: 472 nM
  TGI: 5340 nM
[24]
  GI50: 365 nM
  TGI: 1260 nM
[25]
  GI50: 1890 nM
  TGI: 17000 nM
[26]
  GI50: 515 nM
  TGI: 1910 nM
[27]
  GI50: 880 nM
  TGI: 14900 nM
[28]
  GI50: 1060 nM
  TGI: 8150 nM
[29]
  GI50: 403 nM
  TGI: 13600 nM
[30]
  GI50: 242 nM
  TGI: 1060 nM
[31]
  GI50: 352 nM
[32]
  GI50: 567 nM
  TGI: 16400 nM
[33]
  GI50: 393 nM
  TGI: 6390 nM
[34]
  GI50: 1060 nM
  TGI: 17400 nM
[35]
  GI50: 363 nM
  TGI: 1210 nM
[36]
  GI50: 326 nM
  TGI: 1260 nM
[37]
  GI50: 476 nM
  TGI: 13200 nM
[38]
  GI50: 262 nM
  TGI: 3150 nM
[39]
  GI50: 368 nM
  TGI: 10200 nM
[40]
  GI50: 479 nM
  TGI: 2550 nM
[41]
  GI50: 621 nM
  TGI: 13400 nM
[42]
  GI50: 211 nM
  TGI: 649 nM
[43]
  GI50: 1850 nM
  TGI: 8470 nM
[44]
  GI50: 3350 nM
  TGI: 15800 nM
[45]
  GI50: 930 nM
  TGI: 10100 nM
[46]
  GI50: 277 nM
  TGI: 3850 nM
[47]
  GI50: 490 nM
  TGI: 12100 nM
[48]
  GI50: 338 nM
  TGI: 6360 nM
[49]
  GI50: 712 nM
  TGI: 14300 nM
[50]
  GI50: 478 nM
  TGI: 2410 nM
[51]
  GI50: 567 nM
  TGI: 3340 nM
[52]
  GI50: 145 nM
  TGI: 315 nM
[53]
  GI50: 313 nM
  TGI: 1800 nM
[54]
  GI50: 2010 nM
  TGI: 7090 nM
[55]
  GI50: 464 nM
  TGI: 14600 nM
[56]
  GI50: 434 nM
  TGI: 3620 nM
[57]
  GI50: 371 nM
  TGI: 7460 nM
[58]
  GI50: 805 nM
  TGI: 14300 nM

## CN(C)c1ccc(N=Nc2ccc(Br)cn2)c(O)c1
[1]
  GI50: 294 nM
[2]
  GI50: 471 nM
  TGI: > 100000 nM
[3]
  GI50: 528 nM
  TGI: > 100000 nM
[4]
  GI50: 2270 nM
  TGI: 7840 nM
[5]
  GI50: 556 nM
  TGI: > 100000 nM
[6]
  GI50: 361 nM
  TGI: > 100000 nM
[7]
  GI50: 373 nM
  TGI: > 32800 nM
[8]
  GI50: 635 nM
  TGI: > 100000 nM
[9]
  GI50: 565 nM
  TGI: > 100000 nM
[10]
  GI50: 373 nM
  TGI: > 100000 nM
[11]
  GI50: 568 nM
  TGI: > 100000 nM
[12]
  GI50: 551 nM
  TGI: > 100000 nM
[13]
  GI50: 385 nM
  TGI: > 100000 nM
[14]
  GI50: 404 nM
  TGI: > 100000 nM
[15]
  GI50: 549 nM
  TGI: > 100000 nM
[16]
  GI50: 1130 nM
  TGI: > 100000 nM
[17]
  GI50: 1420 nM
  TGI: > 100000 nM
[18]
  GI50: 774 nM
  TGI: > 100000 nM
[19]
  GI50: 266 nM
  TGI: > 100000 nM
[20]
  GI50: 673 nM
  TGI: 8800 nM
[21]
  GI50: 389 nM
  TGI: > 73600 nM
[22]
  GI50: 691 nM
  TGI: > 21300 nM
[23]
  GI50: 1930 nM
  TGI: > 100000 nM
[24]
  GI50: 737 nM
  TGI: 8350 nM
[25]
  GI50: 641 nM
  TGI: > 100000 nM
[26]
  GI50: 983 nM
  TGI: > 28600 nM
[27]
  GI50: 653 nM
  TGI: > 100000 nM
[28]
  GI50: 5780 nM
  TGI: > 100000 nM
[29]
  GI50: 227 nM
[30]
  GI50: 620 nM
  TGI: 7060 nM
[31]
  GI50: 149 nM
  TGI: > 34000 nM
[32]
  GI50: 294 nM
  TGI: > 46700 nM
[33]
  GI50: 854 nM
  TGI: > 100000 nM
[34]
  GI50: 359 nM
  TGI: > 100000 nM
[35]
  GI50: 5280 nM
  TGI: > 100000 nM
[36]
  GI50: 325 nM
  TGI: > 40000 nM
[37]
  GI50: 362 nM
  TGI: 12500 nM
[38]
  GI50: 171 nM
  TGI: > 100000 nM
[39]
  GI50: 682 nM
  TGI: > 100000 nM
[40]
  GI50: 160 nM
  TGI: > 100000 nM
[41]
  GI50: 737 nM
  TGI: > 100000 nM
[42]
  GI50: 1310 nM
  TGI: > 100000 nM
[43]
  GI50: 2050 nM
  TGI: > 100000 nM
[44]
  GI50: 3210 nM
  TGI: 66700 nM
[45]
  GI50: 681 nM
  TGI: > 100000 nM
[46]
  GI50: 603 nM
  TGI: > 100000 nM
[47]
  GI50: 281 nM
  TGI: > 34700 nM
[48]
  GI50: 790 nM
  TGI: > 100000 nM
[49]
  GI50: 382 nM
  TGI: > 100000 nM
[50]
  GI50: 320 nM
  TGI: > 31000 nM
[51]
  GI50: 260 nM
  TGI: 2440 nM
[52]
  GI50: 774 nM
  TGI: 4350 nM
[53]
  GI50: 1080 nM
  TGI: 7680 nM
[54]
  GI50: 2650 nM
  TGI: > 100000 nM
[55]
  GI50: 476 nM
  TGI: > 100000 nM
[56]
  GI50: 1550 nM
  TGI: > 82600 nM
[57]
  GI50: 186 nM
  TGI: 4890 nM
[58]
  GI50: 704 nM
  TGI: > 100000 nM
